Data: patent US6875422B2, “Oral treatment/care agent” (priority 2000, dated 2005)

Details: used alone
Experimental: Here, a complete cure was determined by comparing the configuration and properties (hardness and color, in clinical practice) of the periodontium, mobility of the teeth, depth of pockets, hemorrhaging, pus discharge, effusion, bacterial flora within the pocket and the like, against those of a normal person (excepting any dramatic periodontial regeneration such as dramatic bone growth relative to the normal person through this medication alone).

## C[C@@H]1[C@H](O)[C@@H](C)/C=C/C=C/C=C/C=C/C=C/C=C/C=C/[C@H](O[C@@H]2O[C@H](C)[C@@H](O)[C@H](N)[C@@H]2O)C[C@@H]2O[C@](O)(C[C@@H](O)C[C@@H](O)[C@H](O)CC[C@@H](O)C[C@@H](O)CC(=O)O[C@H]1C)C[C@H](O)[C@H]2C(=O)O [amphotericin, amphotericin B]
  occurrences on use alone: annual-term occurrences
